Legend:
[1] = Body weight of mice after i.v. dosing; format: in vivo, C57bl/6 mice; settings: 5 mg/kg group (not shown)
Method: (§1) Study 13: Compound 1 was administered i.v. to C57bl/6 mice at 0.165 mg/kg to 5 mg/kg. CD25+ cell abundance was increased in animals receiving the highest dose of 5 mg/kg (FIG. 14), as was body weight in the same group (not shown).

[2] = test system: T cells in PBMC; assay: T cell proliferation, Cell Trace Violet and flow cytometry; format: cell-based, Human; settings: 6 days in the presence of IL-2
Method: FIG. 7. CD4 T cell proliferation after 6 days stimulation with compound 1, measured with proliferation dye Celltrace violet (Invitrogen) and flow cytometry. Untreated cells (UNT) or compound A were used as controls.
Study 6: PBMC were stimulated with compound 1 and cultured in RPMI media for 6 days in the presence of IL-2 (Miltenyi Biotechnologies) and Cell Trace Violet Dye (Invitrogen). Proliferation was measured with flow cytometry.

[3] = target: T1, human TLR2 (Homo sapiens, UniProt O60603); assay: TLR2 reporter assay (HEK-293-TLR, SEAP); format: cell-based
T1 construct: host or cells: recombinant HEK-293-TLR cell lines
T1 sequence (O60603 21-784): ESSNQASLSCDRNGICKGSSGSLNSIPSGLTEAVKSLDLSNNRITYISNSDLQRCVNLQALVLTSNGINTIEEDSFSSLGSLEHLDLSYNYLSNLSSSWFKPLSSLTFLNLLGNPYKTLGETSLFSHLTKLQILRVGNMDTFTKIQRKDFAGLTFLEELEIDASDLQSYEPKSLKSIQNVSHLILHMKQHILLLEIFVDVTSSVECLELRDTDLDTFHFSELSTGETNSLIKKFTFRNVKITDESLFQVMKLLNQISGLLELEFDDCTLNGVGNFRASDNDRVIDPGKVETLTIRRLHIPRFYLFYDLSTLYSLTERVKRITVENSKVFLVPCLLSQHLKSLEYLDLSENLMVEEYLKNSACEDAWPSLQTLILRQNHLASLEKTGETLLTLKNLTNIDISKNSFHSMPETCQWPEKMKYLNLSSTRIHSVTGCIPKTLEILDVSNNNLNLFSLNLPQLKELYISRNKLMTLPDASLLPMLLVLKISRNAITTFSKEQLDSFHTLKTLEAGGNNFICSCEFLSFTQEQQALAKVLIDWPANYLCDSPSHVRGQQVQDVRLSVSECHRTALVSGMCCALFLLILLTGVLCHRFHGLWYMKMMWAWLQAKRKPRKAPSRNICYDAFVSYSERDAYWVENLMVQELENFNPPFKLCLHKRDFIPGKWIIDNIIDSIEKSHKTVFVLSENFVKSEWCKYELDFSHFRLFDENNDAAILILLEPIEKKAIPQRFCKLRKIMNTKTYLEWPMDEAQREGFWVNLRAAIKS
Method: Samples and controls were tested in duplicate on recombinant HEK-293-TLR cell lines using a cell reporter assay at Invivogen using their standard assay conditions. These cell lines functionally over-express human TLR2 protein as well as a reporter gene which is a secreted alkaline phosphatase (SEAP). The production of this reporter gene is driven by an NFkB inducible promoter. The TLR reporter cell lines activation results are given as optical density values (OD).
20 μl of each test article were used to stimulate the hTLR2 reporter cell lines in a 200 μl of final reaction volume. Samples were tested in duplicate, with at least two concentrations tested—20 uM and 10 uM.
Compounds were tested using a TLR2 reporter assay (see general methods) that measured for stimulation of the TLR2 receptor. Stimulatory effect was measured as an increase in optical density (OD) due to release of secreted alkaline phosphatase (SEAP) and is shown in table 4: […]

[4] = test system: PBMCs from CMV infected donors; assay: IFN-gamma secretion from PBMCs of CMV infected donors with CMV antigen (cytometric bead assay); format: cell-based, Human; settings: 3 days
Excerpt: FIG. 9: Interferon-gamma secretion (as measured by cytometric bead assay) from PBMCs (from a CMV+ donor) grown with CMV peptides in the presence or absence of compound 1 or A for 5 days.
Study 8: PBMCs from CMV infected donors cultured in the presence of CMV antigen where either untreated or exposed to compound 1 or compound 2 for 3 days.

[5] = test system: CMV specific CD8+ T cells; assay: CMV cultures: phenotype of CMV specific CD8+ T cells; format: cell-based, Human; settings: CMV antigen, 6 days
Method: Human peripheral blood mononuclear cells (PBMCs) were purified from healthy CMV positive donors with Ficoll-Paque density centrifugation. The PBMC were labeled with 5 μM celltrace violet (Invitrogen) in PBS for 15 minutes and then washed with complete cell culture medium. The labeled PBMC was cultured in the presence of a peptide library spanning the CMV pp65 protein (1 μg peptide/ml, JPT) in AIM-V media (Invitrogen) supplemented with L-glutamine, Sodium pyruvate (Sigma), 10% fetal bovine serum, 100 μg/mL penicillin and 100 μg/mL streptomycin (Hyclone) for 6-8 days in 37° C., 5% CO2. Cell proliferation was assessed with flow cytomtery using a BD FACS Canto II flow cytometer.
Study 7: Virus specific T cell proliferation was also affected by compound 1. […] CD127 is crucial for T cell homeostasis, differentiation and function, and reduced expression correlates with disease severity in HIV and other chronic viral diseases (Crawley et al. 2012).

[6] = test system: peripheral blood mononuclear cells (PBMC); assay: Marker expression on PBMC by flow cytometry; format: cell-based, Human; settings: 24 h
Method: Human peripheral blood mononuclear cells (PBMCs) were purified from healthy donors with Ficoll-Paque density centrifugation. Cells were cultured in complete RPMI-1640 media (Invitrogen) supplemented with 25 mM HEPES, L-glutamine, Sodium pyruvate (Sigma), 10% fetal bovine serum, 100 μg/mL penicillin and 100 μg/mL streptomycin (Hyclone) for 24-72 hours in 37° C., 5% CO2 and stimulated with and increasing concentrations of compound 1 and 2. Cells were then washed in PBS and stained with monoclonal antibodies specific for cell surface markers (BD Pharmingen) and analysed with flow cytomtetry using a BD FACS Canto II flow cytometer. All samples were tested in duplicates.
Human peripheral blood mononuclear cells (PBMCs) were purified from healthy donors with Ficoll-Paque density centrifugation. Cells were cultured in complete RPMI-1640 medium (Invitrogen) supplemented with 25 mM HEPES, L-glutamine, Sodium pyruvate (Sigma), 10% fetal bovine serum, 100 μg/mL penicillin and 100 μg/mL streptomycin (Hyclone). Cells were stimulated for 24 h (study 1-4) or 48 h to 1 week (study 5) in 37° C., 5% CO2 with increasing concentrations of compound 1 and 2 in tissue culture plates. The cells were removed from the plate, washed in PBS and analysed for expression of cell specific surface markers and MHC class I with flow cytomtery using monoclonal antibodies from BD Pharmingen and a FACS Canto II flow cytometer.

[7] = test system: CD11b+ splenocytes; assay: MHC class I expression on CD11b+ splenocytes of mice after i.v. dosing; format: in vivo, C57bl/6 mice; settings: spleen removed 24 h later
Method: FIG. 15: % MHC class I high CD11 b+ cells in spleen of 3 individual C57bl/6 mice injected 24 h previously with indicated compound. MHC class I and CD11b expression was measured by flow cytometry.
Study 14: Compound 1 or 2 was administered i.v. to C57bl/6 mice.

[8] = test system: CD25+ cells; assay: CD25 expression in blood of mice after i.v. dosing; format: in vivo, C57bl/6 mice; settings: highest dose of 5 mg/kg, 24 h
Method: FIG. 14: % CD25high cells in blood of C57bl/6 mice injected 24 h previously with indicated dose of compound 1. CD25 expression was measured by flow cytometry.
as §1

## CC[C@H]1OC(=O)[C@H](C)[C@@H](O[C@H]2C[C@@H](N(C)C)[C@H](O)[C@@H](C)O2)[C@H](C)[C@@H](O)[C@](C)(O)C[C@@H](C)CN(C)[C@H](C)[C@@H](O)[C@]1(C)O [Compound 1]
[1]
  body weight: increased
[2]
  cytokine driven proliferation of T cells: altered cytokine driven proliferation profile
[3]
  lowest concentration at which TLR2 was stimulated (concentrations down to): 5 µM
[3]; 5 μM
  OD after addition of 5 μM test article: 0.111 OD
[3]; 10 μM
  OD after addition of 10 μM test article: 0.202 OD
[3]; 20 μM
  OD after addition of 20 μM test article: 0.458 OD
[4]
  IFN-gamma secretion, PBMCs with CMV antigen: induced secretion of high levels
[5]
  expression of IL-7 receptor a (CD127) on activated CMV specific CD8+ T cells: increased expression
[6]; 1 μM
  activation marker CD69 on CD4+ T cells and B cells: upregulated
[6]
  MHC class I (HLA-ABC) on T- and B-cells: upregulation
  MHC class II (HLA-DR) on monocytes: upregulation
  co-stimulatory molecule CD80 on monocytes: upregulation
[7]
  splenocyte cells with high MHC I expression (CD11b+): induced an increase
[8]
  CD25+ cell abundance: increased

Reference: patent publication US11059844B2, “Immune stimulating macrolides” (ISR IMMUNE SYSTEM REGULATION HOLDING AB (PUBL), priority 2017, dated 2021)
